Assay results: ChEMBL document CHEMBL4024706 (Eur J Med Chem, 2017)
Activity calls are given as the source filed them. The calls are words filed in the database; no cut-off is given here.

Legend:
[1] = target: Tyrosine-protein kinase BTK (Homo sapiens, UniProt Q06187); test: Inhibition of full length recombinant human N-terminal His tagged […] expressed in baculovirus infected Sf9 insect cells using poly (Glu,Tyr)4:1 as substrate pretreated for 60 mins followed by substrate addition after 1 hr by ADP-Glo luminescence assay
Tyrosine-protein kinase BTK, sequence (Q06187 whole entry): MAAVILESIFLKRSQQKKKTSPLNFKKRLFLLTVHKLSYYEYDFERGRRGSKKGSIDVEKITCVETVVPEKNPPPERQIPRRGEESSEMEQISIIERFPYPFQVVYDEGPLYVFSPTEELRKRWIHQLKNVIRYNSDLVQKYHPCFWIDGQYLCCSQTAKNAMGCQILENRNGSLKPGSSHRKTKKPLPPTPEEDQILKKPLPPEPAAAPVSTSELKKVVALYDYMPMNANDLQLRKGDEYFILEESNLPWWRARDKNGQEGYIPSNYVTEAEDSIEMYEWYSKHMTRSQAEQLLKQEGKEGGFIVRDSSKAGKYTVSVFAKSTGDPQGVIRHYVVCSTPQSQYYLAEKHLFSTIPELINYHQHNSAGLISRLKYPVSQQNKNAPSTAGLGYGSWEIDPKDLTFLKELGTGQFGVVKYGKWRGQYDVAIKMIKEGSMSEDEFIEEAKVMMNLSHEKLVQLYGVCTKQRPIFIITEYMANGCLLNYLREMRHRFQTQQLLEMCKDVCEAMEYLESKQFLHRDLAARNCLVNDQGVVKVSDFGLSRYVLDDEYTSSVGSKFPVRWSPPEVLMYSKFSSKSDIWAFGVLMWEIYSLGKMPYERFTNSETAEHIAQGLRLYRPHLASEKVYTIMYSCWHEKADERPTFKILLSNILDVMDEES

[2] = target: Epidermal growth factor receptor (Homo sapiens, UniProt P00533); test: Inhibition of recombinant human N-terminal GST-tagged wild-type EGFR (695 to end residues) expressed in baculovirus infected Sf9 insect cells using poly (Glu,Tyr)4:1 as substrate pretreated for 60 mins followed by substrate addition after 1 hr by ADP-Glo luminescence assay
Epidermal growth factor receptor, sequence (P00533 whole entry): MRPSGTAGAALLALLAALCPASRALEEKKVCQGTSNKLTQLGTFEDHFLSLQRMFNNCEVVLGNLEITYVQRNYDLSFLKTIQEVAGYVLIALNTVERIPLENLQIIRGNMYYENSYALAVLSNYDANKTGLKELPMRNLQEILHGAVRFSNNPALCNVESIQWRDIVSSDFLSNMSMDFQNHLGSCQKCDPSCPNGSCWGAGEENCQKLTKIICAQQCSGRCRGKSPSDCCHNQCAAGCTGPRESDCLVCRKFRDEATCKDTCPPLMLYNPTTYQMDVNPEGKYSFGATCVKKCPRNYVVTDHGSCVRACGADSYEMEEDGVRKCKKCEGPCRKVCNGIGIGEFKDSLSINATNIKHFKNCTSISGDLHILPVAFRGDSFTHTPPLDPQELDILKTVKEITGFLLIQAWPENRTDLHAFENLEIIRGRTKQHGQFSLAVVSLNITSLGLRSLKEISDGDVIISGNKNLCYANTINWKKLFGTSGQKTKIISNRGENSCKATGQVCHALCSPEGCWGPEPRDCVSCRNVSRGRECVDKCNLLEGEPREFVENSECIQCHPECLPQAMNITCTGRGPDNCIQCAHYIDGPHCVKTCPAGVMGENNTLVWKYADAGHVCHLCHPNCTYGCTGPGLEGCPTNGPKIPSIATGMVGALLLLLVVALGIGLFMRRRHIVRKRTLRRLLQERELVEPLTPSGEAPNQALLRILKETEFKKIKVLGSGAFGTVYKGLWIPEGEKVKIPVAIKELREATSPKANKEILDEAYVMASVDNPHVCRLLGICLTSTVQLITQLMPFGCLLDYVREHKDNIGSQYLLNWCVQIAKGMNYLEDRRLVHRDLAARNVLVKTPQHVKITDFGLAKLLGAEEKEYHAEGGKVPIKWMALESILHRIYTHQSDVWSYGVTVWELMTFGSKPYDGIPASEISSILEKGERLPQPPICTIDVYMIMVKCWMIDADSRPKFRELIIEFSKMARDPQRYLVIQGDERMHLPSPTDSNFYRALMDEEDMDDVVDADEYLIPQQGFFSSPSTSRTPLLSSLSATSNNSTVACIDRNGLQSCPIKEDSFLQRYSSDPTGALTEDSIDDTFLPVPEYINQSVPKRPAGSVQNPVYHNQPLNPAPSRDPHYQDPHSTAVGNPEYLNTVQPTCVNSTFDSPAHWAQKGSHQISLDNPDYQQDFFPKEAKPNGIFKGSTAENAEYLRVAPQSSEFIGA

[3] = target: T1, Tyrosine-protein kinase JAK3 (Homo sapiens, UniProt P52333); test: Inhibition of recombinant human N-terminal GST-tagged JAK3 (781 to end residues) expressed in baculovirus infected Sf9 insect cells using poly (Glu,Tyr)4:1 as substrate pretreated for 60 mins followed by substrate addition after 1 hr by ADP-Glo luminescence assay
T1 sequence (P52333 whole entry): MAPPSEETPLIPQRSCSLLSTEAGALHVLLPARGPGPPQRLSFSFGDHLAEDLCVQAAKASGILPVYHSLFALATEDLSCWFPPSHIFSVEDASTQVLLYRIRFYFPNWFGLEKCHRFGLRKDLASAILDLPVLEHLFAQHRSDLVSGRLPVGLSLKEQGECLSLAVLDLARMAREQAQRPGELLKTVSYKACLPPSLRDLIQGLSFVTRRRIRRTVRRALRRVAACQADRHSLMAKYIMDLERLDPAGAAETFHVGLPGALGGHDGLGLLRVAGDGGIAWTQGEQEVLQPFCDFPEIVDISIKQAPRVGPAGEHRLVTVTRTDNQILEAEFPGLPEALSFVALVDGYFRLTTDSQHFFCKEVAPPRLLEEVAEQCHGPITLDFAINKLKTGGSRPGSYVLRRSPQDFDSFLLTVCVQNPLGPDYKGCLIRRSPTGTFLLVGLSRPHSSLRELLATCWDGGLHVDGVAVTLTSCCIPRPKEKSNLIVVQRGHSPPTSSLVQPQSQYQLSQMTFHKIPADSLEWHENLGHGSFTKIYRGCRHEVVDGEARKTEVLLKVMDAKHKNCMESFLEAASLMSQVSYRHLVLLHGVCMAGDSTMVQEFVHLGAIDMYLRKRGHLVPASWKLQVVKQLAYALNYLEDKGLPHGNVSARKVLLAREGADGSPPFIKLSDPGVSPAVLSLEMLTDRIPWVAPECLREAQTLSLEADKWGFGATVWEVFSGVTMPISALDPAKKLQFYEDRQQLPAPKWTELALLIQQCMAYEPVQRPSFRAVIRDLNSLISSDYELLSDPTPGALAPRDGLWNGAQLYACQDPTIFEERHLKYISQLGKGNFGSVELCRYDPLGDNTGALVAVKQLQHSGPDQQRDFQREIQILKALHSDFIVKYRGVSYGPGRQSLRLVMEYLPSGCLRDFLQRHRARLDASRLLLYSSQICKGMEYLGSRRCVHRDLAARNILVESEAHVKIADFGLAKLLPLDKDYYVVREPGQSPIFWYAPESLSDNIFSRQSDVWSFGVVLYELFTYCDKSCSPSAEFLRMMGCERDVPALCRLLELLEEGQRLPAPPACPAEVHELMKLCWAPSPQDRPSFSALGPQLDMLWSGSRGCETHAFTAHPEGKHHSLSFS

[4] = test system: OCI-AML-3; test: Growth inhibition of human OCI-AML3 cells; assay type: functional
[5] = test system: Pfeiffer; test: Growth inhibition of human Pfeiffer cells; assay type: functional
[6] = test system: Pfeiffer; test: Cell cycle arrest in human Pfeiffer cells assessed as increase in accumulation at G0/G1 phase at 10 uM after 48 hrs by propidium iodide/RNase staining based flow cytometric method; assay type: functional
[7] = test system: PBMC; test: Cytotoxicity against PBMC (unknwon origin); assay type: cell-based
[8] = Growth inhibition of human M07e cells; assay type: functional
[9] = test system: U2932; test: Growth inhibition of human U2932 cells; assay type: functional
[10] = test system: SU-DHL-2; test: Growth inhibition of human SU-DHL-2 cells; assay type: functional
[11] = test system: U2932; test: Cell cycle arrest in human U2932 cells assessed as increase in accumulation at G0/G1 phase at 10 uM after 48 hrs by propidium iodide/RNase staining based flow cytometric method; assay type: functional
[12] = test system: Ramos; test: Growth inhibition of human Ramos cells; assay type: functional
[13] = test system: U-937; test: Growth inhibition of human U937 cells; assay type: functional
[14] = test system: NB-4; test: Growth inhibition of human NB4 cells; assay type: functional
[15] = test system: MV4-11; test: Growth inhibition of human MV411 cells; assay type: functional
[16] = test system: SKM-1; test: Growth inhibition of human SKM1 cells; assay type: functional

| SMILES | IC50 [1] [nM] | other results |
| --- | --- | --- |
| C=CC(=O)NC1CCCN(c2cc(-c3cccc(NC(=O)c4ccc(N(C)C)cc4)c3C)cn(C)c2=O)C1 (stereo unspecified) | > 10000 | – |
| C=CC(=O)Nc1cc(C(=O)N2CCOCC2)ccc1Nc1cc(-c2cccc(NC(=O)c3ccc(C(C)(C)C)cc3)c2C)cn(C)c1=O | 231 | – |
| C=CC(=O)Nc1cc(Nc2cc(-c3cccc(NC(=O)c4ccc(C(F)(F)F)cc4)c3C)cn(C)c2=O)ccc1C(=O)N1CCOCC1 | 76 | – |
| C=CC(=O)Nc1cc(Nc2cc(-c3cccc(NC(=O)c4ccc5c(c4)OCO5)c3C)cn(C)c2=O)ccc1C(=O)N1CCOCC1 | 282 | – |
| C=CC(=O)Nc1cc(Nc2cc(-c3cccc(NC(=O)c4ccc(C(C)(C)C)cc4)c3C)cn(C)c2=O)ccc1C | 365 | – |
| C=CC(=O)Nc1cc(Nc2cc(-c3cccc(NC(=O)c4ccc(C(C)(C)C)cc4)c3C)cn(C)c2=O)ccc1C(=O)N1CCN(C(=O)OC(C)(C)C)CC1 | 68 | – |
| C=CC(=O)Nc1cc(Nc2cc(-c3cccc(NC(=O)c4ccccc4)c3C)cn(C)c2=O)ccc1C(=O)N1CCOCC1 | 3740 | – |
| C=CC(=O)Nc1cc(Nc2cc(-c3cccc(NC(=O)c4ccc(N(C)C)cc4)c3C)cn(C)c2=O)ccc1C(=O)N1CCC(OC)CC1 | 596 | – |
| C=CC(=O)Nc1cc(Nc2cc(-c3cccc(NC(=O)c4ccc(C(C)C)cc4)c3C)cn(C)c2=O)ccc1C(=O)N1CCOCC1 | 32 | – |
| C=CC(=O)N1CCCC(Nc2cc(-c3cccc(NC(=O)c4ccc(N(C)C)cc4)c3C)cn(C)c2=O)C1 (stereo unspecified) | > 10000 | – |
| C=CC(=O)N1CCC(Nc2cc(-c3cccc(NC(=O)c4ccc(N(C)C)cc4)c3C)cn(C)c2=O)CC1 | > 10000 | – |
| C=CC(=O)Nc1cc(Nc2cc(-c3cccc(NC(=O)c4ccc(C)c(C(F)(F)F)c4)c3C)cn(C)c2=O)ccc1C(=O)N1CCOCC1 | 1260 | – |
| C=CC(=O)Nc1cc(Nc2cc(-c3cccc(NC(=O)c4ccc(C(C)(C)C)cc4)c3C)cn(C)c2=O)ccc1C(=O)N(C)C | 34 | – |
| C=CC(=O)Nc1cc(Nc2cc(-c3cccc(NC(=O)c4ccc(N(C)C)cc4)c3C)cn(C)c2=O)ccc1C(=O)N(CCOCC)CCOCC | 3190 | – |
| C=CC(=O)Nc1cc(Nc2cc(-c3cccc(NC(=O)c4ccc5c(c4)CCCC5)c3C)cn(C)c2=O)ccc1C(=O)N1CCOCC1 | 57 | – |
| C=CC(=O)Nc1cc(Nc2cc(-c3cccc(NC(=O)c4ccc(N5CCCC5)cc4)c3C)cn(C)c2=O)ccc1C(=O)N1CCOCC1 | 86 | – |
| C=CC(=O)Nc1cc(Nc2cc(-c3cccc(NC(=O)c4ccc(OC)cc4)c3C)cn(C)c2=O)ccc1C(=O)N1CCOCC1 | 2610 | – |
| C=CC(=O)Nc1cc(Nc2cc(-c3cccc(NC(=O)c4ccc(C(C)(C)C)cc4)c3C)cn(C)c2=O)ccc1C(=O)OC | 197 | – |
| C=CC(=O)Nc1cccc(Nc2ncc(NC(=O)c3cc(NC(=O)c4cccc(C(F)(F)F)c4)ccc3C)cn2)c1 | – | IC50 [2]: 72 nM; IC50 [3]: 1700 nM |
| C=CC(=O)Nc1cc(Nc2cc(-c3cccc(NC(=O)c4ccc(C)cc4)c3C)cn(C)c2=O)ccc1C(=O)N1CCOCC1 | 114 | – |
| C=CC(=O)N1CCC[C@@H](n2nc(-c3ccc(Oc4ccccc4)cc3)c3c(N)ncnc32)C1 [IBRUTINIB] | – | GI50 [4]: 9200 nM; GI50 [5]: 1600 nM; Activity [6]: Active; Activity [7]: Non-Toxic; GI50 [8]: 590 nM; GI50 [9]: 4400 nM; GI50 [10]: 640 nM; Activity [11]: Active; GI50 [12]: 3400 nM; GI50 [13]: 2900 nM; GI50 [14]: 3000 nM; GI50 [15]: 250 nM; GI50 [16]: 3600 nM |

| SMILES | IC50 [1] [nM] | other results |
| --- | --- | --- |
| C=CC(=O)N1CCc2ccc(-n3c(=O)ccc4cnc5ccc(-c6cnn(C)c6)cc5c43)cc21 | – | IC50 [2]: 874 nM; IC50 [3]: 3340 nM |
| C=CC(=O)Nc1ccc(NC(=O)c2ccc(C(C)(C)C)cc2)c(C)c1-c1cc(Nc2ccc(C(=O)N3CCOCC3)cc2)c(=O)n(C)c1 | 1700 | – |
| C=CC(=O)NC1CCN(c2cc(-c3cccc(NC(=O)c4ccc(N(C)C)cc4)c3C)cn(C)c2=O)CC1 | > 10000 | – |
| C=CC(=O)Nc1cc(Nc2cc(-c3cccc(NC(=O)c4ccc(N5CCOCC5)cc4)c3C)cn(C)c2=O)ccc1C(=O)N1CCOCC1 | 273 | – |
| C=CC(=O)Nc1cccc(Nc2cc(-c3cccc(NC(=O)c4ccc(C(C)(C)C)cc4)c3C)cn(C)c2=O)c1 | > 10000 | – |
| C=CC(=O)Nc1cc(Nc2cc(-c3cccc(NC(=O)c4ccc5c(c4)OCCO5)c3C)cn(C)c2=O)ccc1C(=O)N1CCOCC1 | 89 | – |
| C=CC(=O)Nc1cc(Nc2cc(-c3cccc(NC(=O)c4ccc(N(C)C)cc4)c3C)cn(C)c2=O)ccc1C(=O)N1CCCC(O)C1 (stereo unspecified) | 244 | – |
| C=CC(=O)Nc1cc(Nc2cc(-c3cccc(NC(=O)c4ccc(CC)cc4)c3C)cn(C)c2=O)ccc1C(=O)N1CCOCC1 | 210 | – |
| C=CC(=O)Nc1cc(Nc2cc(-c3cccc(NC(=O)c4ccc(C(C)(C)C)cc4)c3C)cn(C)c2=O)ccc1C(=O)N1CCN(C)CC1 | 127 | – |
| C=CC(=O)Nc1cccc(Nc2nc(Nc3ccc(OCCOC)cc3)ncc2F)c1 [SPEBRUTINIB] | – | IC50 [2]: 442 nM; IC50 [3]: 1750 nM |
| C=CC(=O)Nc1cc(Nc2cc(-c3cccc(NC(=O)c4ccc(C(C)(C)C)cc4)c3C)cn(C)c2=O)ccc1C(=O)N1CCC(OC)CC1 | 65 | – |
| C=CC(=O)Nc1cc(Nc2cc(-c3cccc(NC(=O)c4ccc(C(C)(C)C)cc4)c3C)cn(C)c2=O)ccc1C(=O)NC1CC1 | 41 | – |
| C=CC(=O)Nc1cc(Nc2cc(-c3cccc(NC(=O)c4cccc(C(F)(F)F)c4)c3C)cn(C)c2=O)ccc1C(=O)N1CCOCC1 | > 10000 | – |
| C=CC(=O)Nc1cc(Nc2cc(-c3cccc(NC(=O)c4ccc(C(C)(C)C)cc4)c3C)cn(C)c2=O)ccc1C(=O)N1CCCC(O)C1 (stereo unspecified) | 21 | – |
| C=CC(=O)Nc1cc(Nc2cc(-c3cccc(NC(=O)c4cccc(OC)c4)c3C)cn(C)c2=O)ccc1C(=O)N1CCOCC1 | 1190 | – |
| C=CC(=O)Nc1cccc(Nc2nc(Nc3ccc(Oc4ccnc(C(=O)NC)c4)cc3)ncc2F)c1 | – | IC50 [3]: 1530 nM |
| C=CC(=O)Nc1cc(Nc2cc(-c3cccc(NC(=O)c4cc(OC)c(OC)c(OC)c4)c3C)cn(C)c2=O)ccc1C(=O)N1CCOCC1 | 1430 | – |
| C=CC(=O)NC1CCCC(Nc2cc(-c3cccc(NC(=O)c4ccc(N(C)C)cc4)c3C)cn(C)c2=O)C1 (stereo unspecified) | 2950 | – |
| C=CC(=O)Nc1cc(Nc2cc(-c3cccc(NC(=O)c4ccc(N(C)C)cc4)c3C)cn(C)c2=O)ccc1C(=O)N1CCC(O)CC1 | 187 | – |
| Cc1c(NC(=O)c2ccc(C(C)(C)C)cc2)cccc1-c1cc(Nc2ccc(C(=O)N3CCOCC3)c(NC(=O)CCl)c2)c(=O)n(C)c1 | 63 | – |
